Data published in the supplement of paper PMC10307832.

Legend:
Test in all cases: relative viability (nuclei count vs DMSO), 5 days (fraction); higher = more cells survive
TGX 221 + Alpelisib = compound: CC1=CN2C(=O)C=C(N=C2C(=C1)C(C)NC3=CC=CC=C3)N4CCOCC4 [TGX 221] + Cc1nc(NC(=O)N2CCC[C@H]2C(N)=O)sc1-c1ccnc(C(C)(C)C(F)(F)F)c1 [Alpelisib] (partner 2 µM)
In short: (§1)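 Relative viability is defined as nuclei in treated wells over nuclei in vehicle wells. Duplicate plates were run and medians reported. Lung cancer cell lines in 1536-well plates were dosed by pin tool one day after seeding, with one drug or with a fixed anchor-drug dose plus five library-drug doses (not always all listed) in √10 steps, and nuclei were counted after 5 days.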

[1] = compound: C1=CC=C(C(=C1)C2=CC=C(C=C2)C3=CSC4=C3C(=C(C(=O)N4)C#N)O)O + CS(=O)(=O)N1CCN(Cc2cc3nc(-c4cccc5[nH]ncc45)nc(N4CCOCC4)c3s2)CC1 [Pictilisib] (partner 1 µM)
In short: as §1

[2] = compound: O=C(CCCCCCNC(=O)c1cnc(N(c2ccccc2)c2ccccc2)nc1)NO [Ricolinostat] + N=C(N)NC(=N)NCCc1ccccc1 [Phenformin] (partner 250 µM)
In short: as §1

[3] = compound: C1=CC=C(C(=C1)C2=CC=C(C=C2)C3=CSC4=C3C(=C(C(=O)N4)C#N)O)O + CC(=O)Nc1cccc(-n2c(=O)n(C3CC3)c(=O)c3c(Nc4ccc(I)cc4F)n(C)c(=O)c(C)c32)c1 [Trametinib] (partner 0.02 µM)
In short: as §1

Cell Line | relative viability (TGX 221 + Alpelisib; first compound 0.08 µM) | relative viability (TGX 221 + Alpelisib; first compound 0.253 µM) | relative viability (TGX 221 + Alpelisib; first compound 0.8 µM) | relative viability (TGX 221 + Alpelisib; first compound 2.53 µM) | relative viability (TGX 221 + Alpelisib; first compound 8 µM) | relative viability ([1]; first compound 0.08 µM) | relative viability ([1]; first compound 0.253 µM) | relative viability ([1]; first compound 0.8 µM) | relative viability ([1]; first compound 2.53 µM) | relative viability ([1]; first compound 8 µM) | relative viability ([2]; first compound 0.08 µM) | relative viability ([2]; first compound 0.253 µM) | relative viability ([2]; first compound 0.8 µM) | relative viability ([2]; first compound 2.53 µM) | relative viability ([3]; first compound 0.08 µM) | relative viability ([3]; first compound 0.253 µM) | relative viability ([3]; first compound 0.8 µM) | relative viability ([3]; first compound 2.53 µM) | relative viability ([3]; first compound 8 µM)
HCC-827 | 0.929 | 0.807 | 0.904 | 0.482 | 0.438 | 1.11 | 1.05 | 0.819 | 0.996 | 0.986 | 0.345 | 0.4 | 0.396 | 0.435 | 0.538 | 0.368 | 0.538 | 0.535 | 0.536
HOP-62 | 0.899 | 0.958 | 0.827 | 1.13 | 1.11 | 0.774 | 0.773 | 0.673 | 0.837 | 0.434 | 0.586 | 0.657 | 0.623 | 0.503 | 0.38 | 0.431 | 0.41 | 0.378 | 0.337
IA-LM | 0.753 | 0.818 | 0.792 | 0.614 | 0.589 | 0.273 | 0.452 | 0.287 | 0.369 | 0.238 |  |  |  |  |  |  |  |  | 
LC-2-ad | 0.81 |  | 0.722 | 0.645 | 0.62 | 0.42 | 0.537 | 0.374 | 0.473 | 0.355 | 0.47 | 0.621 | 0.5 | 0.44 | 0.899 | 0.942 | 0.909 | 0.98 | 0.807
LCLC-97TM1 | 0.261 | 0.246 | 0.287 | 0.199 | 0.214 | 0.168 | 0.284 | 0.198 | 0.2 | 0.176 | 0.314 | 0.417 | 0.45 | 0.204 | 0.23 | 0.239 | 0.247 | 0.168 | 0.232
LCLC-103H | 1.03 | 0.896 | 0.776 | 0.743 | 0.654 | 0.544 | 0.664 | 0.541 | 0.554 | 0.576 | 0.252 | 0.323 | 0.371 | 0.325 | 0.729 | 0.618 | 0.682 | 0.632 | 0.62
LK-2 | 1.02 | 1.05 | 0.959 | 0.665 | 1 |  |  | 0.507 | 0.656 | 0.514 | 0.415 | 0.547 | 0.499 | 0.449 | 0.594 | 0.609 | 0.95 | 0.745 | 0.598
LOU-NH91 | 0.69 | 0.706 | 0.682 | 0.697 | 0.575 | 0.482 | 0.538 | 0.51 | 0.515 | 0.512 | 0.516 | 0.726 | 0.713 | 0.744 | 0.778 | 0.865 | 0.794 | 0.753 | 0.705
LU99A | 0.524 | 0.443 | 0.494 | 0.513 | 0.57 | 0.283 | 0.307 | 0.339 | 0.332 | 0.295 | 0.738 | 0.705 | 0.716 | 0.597 | 0.566 | 0.589 | 0.596 | 0.585 | 0.605
LXF-289 | 0.948 | 0.979 | 0.947 | 0.898 | 0.898 | 0.677 | 0.831 | 0.781 | 0.81 | 0.779 | 0.495 | 0.463 | 0.538 | 0.529 | 0.682 | 0.695 | 0.656 | 0.722 | 0.755
NCI-H23 | 0.66 | 0.572 | 0.471 | 0.606 | 0.574 | 0.439 | 0.462 | 0.563 | 0.458 | 0.396 | 0.72 | 0.749 | 0.8 | 0.706 | 0.333 | 0.321 | 0.383 | 0.379 | 0.261
NCI-H322M | 0.8 | 0.64 | 0.64 | 0.687 | 0.505 | 0.511 | 0.495 | 0.494 | 0.477 | 0.499 |  | 0.839 | 0.767 | 0.761 | 0.501 | 0.464 | 0.548 | 0.539 | 0.503
NCI-H358 | 0.723 | 0.75 | 0.828 | 0.85 | 0.726 | 0.415 | 0.344 | 0.329 | 0.342 | 0.414 | 0.265 | 0.362 | 0.424 | 0.432 | 0.13 | 0.149 | 0.131 | 0.135 | 0.14
NCI-H522 |  |  |  |  |  |  |  |  |  |  | 0.609 | 0.559 | 0.704 | 0.829 | 1 | 0.784 | 0.827 | 0.687 | 0.718
NCI-H1299 | 0.991 | 1.07 | 1.12 | 1.14 | 1.17 | 1.04 | 0.858 | 0.826 | 0.771 | 0.594 |  |  |  |  |  |  |  |  | 
NCI-H1563 | 0.834 | 0.777 | 0.658 | 0.607 | 0.594 | 0.629 | 0.655 | 0.689 | 0.703 | 0.637 | 0.596 | 0.647 | 0.685 | 0.671 |  |  |  |  | 
NCI-H1623 |  |  |  |  |  |  |  |  |  |  | 0.559 | 0.582 | 0.557 | 0.556 |  |  |  |  | 
NCI-H1648 |  |  |  |  |  |  |  |  |  |  |  |  |  |  |  | 0.487 | 0.61 | 0.546 | 0.353
NCI-H1650 |  |  |  |  |  |  | 0.855 | 0.681 | 0.53 | 0.501 | 0.338 | 0.408 | 0.445 | 0.218 | 0.639 | 0.495 | 0.524 | 0.597 | 0.42
NCI-H1703 | 0.269 | 0.222 | 0.176 | 0.267 | 0.235 | 0.236 | 0.292 | 0.25 | 0.259 | 0.24 |  |  |  |  |  |  |  |  | 
NCI-H2342 |  |  |  |  |  |  |  |  |  |  | 0.475 | 0.578 | 0.614 | 0.713 | 0.754 | 0.88 | 0.794 | 0.681 | 0.68
SW 900 |  |  |  |  |  |  |  |  |  |  | 0.441 | 0.635 | 0.433 | 0.48 |  | 1.06 | 0.947 | 0.762 | 0.646
